In one assay the test system is APTK-OVA tumors. Briefly: Adoptive transfer of UA-conditioned OT-1 T cells into Rag1−/− mice. In kind it is in vivo, mouse. To be noted: seven days after transfer into Rag1−/− mice, T cells cultured 48 hours with UA. On the procedure: For adoptive cell transfer, purified splenic T cell from OT1 mice were isolated and activated using αCD3/αCD28 stimulation beads for 48 h. After magnetic bead removal, 1×10^6 T of activated T cell were intravenously injected into Rag1−/− recipients. To study survival of transferred T cells, stimulated OT-1 T cells were injected into mice without tumors. Subsequently, after 7 days, spleens were isolated and splenocytes were stained for the CD8+ subsets as described below. To understand antitumor immunity conferred by transferred OT-1 lymphocytes, cells were injected into mice carrying APTK-OVA tumors 10 days after subcutaneous organoid transplantation. Tumor growth was assessed as described above. Mice were kept under regular chow food for the T cell adoptive transfer experiment and sacrificed collectively when maximum tumor diameter extended 1.5 cm.
Tumors were minced and digested with Tumor & Tissue Dissociation Reagent (BD Horizon) for 30 min. The remaining organ pieces were filtered through a 70 µm cell strainer. Cells were then washed with PBS 1% BSA and 2 mM EDTA. Immune cells were enriched on a 30%/40%/75% Percoll gradient after a 1700 rpm 17 min centrifugation. Then, tumor immune filtrates or activated T cells were stained with Fixable Viability Dye-eF780 (65-0865-14; eBioscience), αCD45-FITC (30-F11; 11-0451-85; eBioscience), αCD11b-BV650 (M1/70; 56340; BD) α-CD11c-BV785 (HL3; 563735; BD), aLy6G-BV605 (53-6.7; 563005; BD), aLy6C-AF700 (HK1.4; 128024; Biolegend), aF4/80-PE (BM8; 12-4801-82, eBioscience), aPD-L1-PECy7 (MIH5; 25-5982-80, eBioscience); or with Fixable Viability Dye-eF780 (ebioscience), αCD45-BV786 (30-F11; 564225; BD), αCD4-BUV496 (GK1.5; 564667; BD), αCD8-BV605 (100744; Biolegend), aPD1-APC (J43; 17-9985-82; eBioscience), aTIM-3-PECy7 (RMT3-23; 119715; Biolegend), aCTLA4-PE (UC10-4B9; 106305; Biolegend) and aLag3-BV421 (C9B7W; 125221, Biolegend); or with Fixable Viability Dye-eF780 (eBioscience), αCD4-FITC (H129.19; 553650; BD), αCD8-APC (53-6.7; 17-0081-83; eBioscience), αCD44-AF400 (IM7; 103026; Biolegend), αCD62L-BV785 (MEL-14; 104440; Biolegend), αSca-1-PerCP-Cy5.5 (D7; 45-5981-82; eBioscience), αCD95-PE (Jo2; 554258; BD); or with Fixable Viability Dye-eF780 (eBioscience), αCD8-BV650 (53-6.7; 563234; BD), αCD4-BUV496 (GK1.5; 564667; BD), αCD127-APC (A7R34; 17-1271-82; eBioscience), αCD95-FITC (SA367H8;152605; Biolegend), αCD44-AF400 (IM7; 103026; Biolegend), αCD62L-BV785 (MEL-14; 104440; Biolegend), αSca-1-PerCP-Cy5.5 (D7; 45-5981-82; eBioscience) followed by intracellular staining of aTCF1-PE (S33-966; 564217; BD), or PGC-1α (sc-518025; D-5; santa cruz), or aCyclinD1 (MA5-28534, DCS-6; Invitrogen) with transcription factor buffer set kit (BD Biosciences). To study cytokine expression, tumor immune infiltrates were stimulated ex vivo with 20 ng/mL PMA and […] Ionomycin (Sigma) for 3 h in T cell activation medium with Brefeldin A (Biolegend). For T cell in vitro activation experiments over several days, Brefeldin A was added to the medium for the last 3 hours. Cells were then stained with Fixable Viability Dye-eF780 (eBioscience), αCD8-PeCy7 (53.6-7; 100722; Biolegend), αCD4-AF700 (GK1.5; 100429; Biolegend), and intracellular staining for cytokine assessment was performed with BD Cytofix/Cytoperm (BD) with 20 min fixation and overnight incubation with αGranzyme B-FITC (GB11; 515403; Biolegend), αIFNγ-PerCPCy5.5 (XMG1.2; 45-7311-82; eBioscience) and αTNFa-BV711 (MP6-XT22; 563944; BD). For flow cytometric analysis of mitochondria and lysosomes 500 μl of Mitotracker Red (200 nM; ThermoFisher) or Lysotracker Red DND-99 (75 nM; ThermoFisher) were applied followed by surface staining. To study changes in mitochondrial membrane potential, Mitoprobe TMRM kit (ThermoFisher) was used according to the manufacturer's instructions. Cell proliferation was assessed by CellTrace Violet (Invitrogen, C34557) at a concentration of […] according to manufacturer's instructions. […]

In assay [1] the test system is rat model of heart failure. Briefly: Rat model of heart failure after myocardial infarction (LAD ligation), echocardiography. The class given is in vivo. An excerpt:
Generation of a rat model of cardiac impairment following myocardial infarction Fifty (50) Wistar male rats from Janvier Labs (France), 6-week-old (200-224 g on the day of arrival), were included in this study. Acclimatization of animals lasted at least 5 days. During the study, animals had free access to food and drinking water ad libitum.
Myocardial infarction (MI) was induced by chronic left anterior descending coronary artery (LAD) ligation performed at DO. Rats were anesthetized with an intraperitoneal (IP) injection of Medetomidine (0.5 mg/kg) and Ketamine (50 mg/kg), intubated and ventilated at 10 mL/kg tidal volume and 70-80 cycles/min. Body temperature was maintained between 36.5° C. and 37.5° C. via a thermoregulated heating pad connected to a rectal probe. A left lateral thoracotomy was carefully performed so as to expose the heart. Then, a suture was placed around the LAD (4/0 Silk, Ethicon), around 2 mm below the left atrium and close to the interventricular junction, in order to obtain infarct size (IS) near 40% of the total left ventricular (LV) area. Chest was closed, air was expelled from the rib cage to avoid pneumothorax and quick reanimation was performed using atipamezole hydrochloride (IM, 0.5 mg/mL, Zoetis). A peri-operative care of the animals was performed during the surgery: • Pre-operative care by one carprofen injection (SC, 5 mg/kg, Pfizer) and one lidocaine injection on the site of incision (SC, 4 mg/kg, Vetoquinol). • Post-operative care: 3 injections of buprenorphine (SC, 0.01 mg/kg, Axience) administered after awakening and during the first 24 hours after the surgery.
Rats underwent transthoracic echocardiographic examination in order to assess cardiac morphology and function in a noninvasively way. […]
Left ventricle (LV) function was assessed using ejection fraction (EF), calculated as follow: […]
Statistical analysis was performed with the Graphpad 6 software. […] First, differences were assessed between Sham/Vehicle and MI/Vehicle using an unpaired ttest followed by the appropriate post-hoc test. […]

The test system of the next assay is human T lymphocytes. Briefly: Proportion of human T memory stem cells (Tscm). The class given is cell-based. An excerpt:
Human peripheral blood mononuclear cells were purified with a Ficoll-Paque (GE healthcare) gradient. T cells were enriched with EasySep Human T Cell Isolation Kit (StemCell) and activated with dynabead Human T-Activator CD3/CD28 for T Cell Expansion and Activation Kit (11131D; ThermoFisher Scientific). Cells were activated with compound 66 at the indicated concentration or DMSO. Tscm cells are identified and counted based on the expression of five different markers: CD45RA^+CCR7^HiCD62L^+CD95^+CD8^+.
Human peripheral blood mononuclear cells were purified with a Ficoll-Paque (GE healthcare) gradient. T cells were enriched with EasySep Human T Cell Isolation Kit (StemCell) and activated with dynabead Human T-Activator CD3/CD28 for T Cell Expansion and Activation Kit (11131D; ThermoFisher Scientific). Cells were activated with the 77 at 400 nM or DMSO.
Staining was performed as described in Example 15.
(§1) Flow cytometry and analysis was performed as described in Example 14.

Assay [2] deals with mouse T lymphocytes. Briefly: Mitochondrial content (Mitotracker positive cells) in mouse T lymphocytes. In kind it is cell-based. To be noted: 2 μM, 72 h; for percentage of Mitotracker positive cells: DMSO 44%. The method, then: Splenic murine T cells were isolated from mice aged 6-20 weeks by negative selection with EasySep mouse T cell isolation kit (Stem cell) according to the manufacturer's instructions. T cell activation was initiated using CD3/CD28 activation beads (11456D; ThermoFisher Scientific) at a ratio of 25 μl dynabeads per 0.5×10^6 T-cells. Cells were activated with test compounds at 2 μM or DMSO in T cell activation Medium (RPMI (ThermoFisher Scientific) 10% FBS (South America origin), 10 mM Hepes (Sigma), 1× Non-Essential Amino Acid, 1 mM Sodium Pyruvate, 50 μM β-Mercaptoethanol, 100 U/ml penicillin, 100 μg/ml streptomycin and 2 mM Glutamax (ThermoFisher Scientific) for 72 h. For subsequent analysis, activating beads were magnetically removed prior staining.
For flow cytometric analysis of mitochondria 500 μl of Mitotracker Red (200 nM; ThermoFisher) was applied followed by surface staining.
Cell doublets and cells debris were excluded from the analysis by gating FSC-A vs FSC-H followed by SSC-A vs SSC-H dot plots and FSC-A vs SSC-A dot plots, respectively. eFluor 780 highly positive cells, i.e, dead cells, were gated out of the analysis. Data was acquired on Canto II (BD), Fortessa (BD) and Aurora (Cytek) cytometers and analyzed with FlowJo.

For assay [3], the system named is mouse T lymphocytes. Briefly: Proportion of mouse T memory stem cells (Tscm). In kind it is cell-based. The settings on record: 2 μM, 72 h. The method, then: T cells were isolated and stimulated as described in Example 14.
Tscm represent a subset of minimally differentiated T cells, which share a CD44^loCD62L^hi phenotype with naïve T cells, but are phenotypically distinct by expressing high levels of Sca1 (Gattinoni et al., 2009). Tscm are therefore identified as CD44^−CD62L^+Sca1^hi cells.
as §1

Where [4] appears, read: MI rats, 0.5 mg/kg oral gavage, Month 2, M-mode, vs MI/Vehicle.

The structures appear in SMILES notation.

`O=c1oc2cc(O)ccc2c2ccc(O)cc12` [Urolithin A]: in the assay with APTK-OVA tumors, the “number of engrafted CD8+ T cells” value is “significantly higher”.

As to `O=C1OCc2cc(O)ccc2-c2ccc(O)cc21` [compound 66, 3,9-dihydroxydibenzo[c,e]oxepin-5(7H)-one], the “LV systolic dysfunction induced by MI” value in assay [1] (0.5 mg/kg, 2 months after LAD ligation) is recorded as “able to prevent”. Moreover, in assay [1] (setting [4]), the “ejection fraction (EF)” value is given as “significant increases” and the “fractional shortening (FS)” value is “significant increases”. Besides, in the assay on human T lymphocytes (indicated concentration vs DMSO), the “Tscm proportion of CD3+ lymphocytes” value is given as “significant increase”. In addition, in the assay with mouse T lymphocytes [2], the “increase in the percentage of Mitotracker positive cells vs DMSO” value is reported as 27.5% and the “percentage of Mitotracker positive cells” value is 56.1%. Besides, the “increase in the percentage of Tscm in CD8+ cells vs DMSO” value in the assay on mouse T lymphocytes [3] is given as 69%. The “percentage of Tscm in CD8+ cells” value in the assay on mouse T lymphocytes [3] (DMSO 16.7%) amounted to 28.2%.

Consider `CN1C(=O)Cc2cc(O)ccc2-c2ccc(O)cc21` [compound 77, 3,9-dihydroxy-5-methyl-5,7-dihydro-6H-dibenzo[b,d]azepin-6-one], for which, in the assay on human T lymphocytes (400 nM, 72 h, vs DMSO), the “increase in Tscm proportion of CD8+ lymphocytes” value is about 3 fold. Besides, in the assay with mouse T lymphocytes [2], the “increase in the percentage of Mitotracker positive cells vs DMSO” value stood at 43.4% and the “percentage of Mitotracker positive cells” value is listed as 63.1%.

The values above are taken from patent US20240139149A1, “THERAPEUTIC USES OF UROLITHIN DERIVATIVES” (Vandria SA, priority 2022, published 2024).
